ChEMBL document CHEMBL1152076, “Alteration of Na+ permeability in human erythrocytes as studied by 23Na-NMR and inhibition of the kidney Na+,K+-ATPase activities with saponins: Interaction of Gleditsia saponins with human erythrocyte membranes” (Bioorg Med Chem Lett, 1995)

Target: Sodium/potassium-transporting ATPase (Rattus norvegicus)
Experiment: Inhibitory activity against rat kidney Na+/K+ ATPase was determined by fiske subbarow method

C=C[C@@](C)(O)CC/C=C(\C)C(=O)OC1C(COCCCC2OC(CCCOOC(=O)C34CCC(C)(C)CC3C3=CCC5[C@@]6(C)CCC(OC7OC(CCOCCC8OCC(O)C(O)C8OC8OCC(O)C(O)C8O)C(O)C(O)C7O)C(C)(C)C6CC[C@@]5(C)[C@]3(C)C[C@H]4O)C(OCC3OC(C)C(OCCCCCCCCC4OCC(O)C(OC5OCC(O)C(O)C5O)C4O)C(O)C3O)C(O)C2O)OC(C)C(O)C1OC(=O)/C(=C/CC[C@](C)(O)C=C)CO (stereo partly specified)
IC50: 400 µM
